Reference: US20260174874A1, “INSULIN DERIVATIVES” (USTAV ORGANICKE CHEMIE A BIOCHEMIE AKADEMIE VED CR, V. V. I., priority 2022, published 2026)
“And” between values parts separate entries of the source, which are not always exact repeats. Identical values can stand only once. Like-named read-outs stand apart in the source and are kept apart here. Marks after values point to notes of the source that are not given here.

How the values were obtained:
SH-SY5Y cells = test: Protection of SH-SY5Y cells against methylglyoxal toxicity (MTT assay); format: cell-based; conditions: methylglyoxal 1.5 mmol·l-1, SY5Y cells
IR-A = IR-A (Homo sapiens, UniProt P06213); conditions: published; (Kd of native hormone/Kd of derivative) × 100; cited from earlier work
IGF-1R [1] = target: T1, IGF-1R (Homo sapiens, UniProt P08069); conditions: cited from earlier work
IR-B = IR-B (Homo sapiens, UniProt P06213); conditions: published; (Kd of native hormone/Kd of derivative) × 100; cited from earlier work
IGF-1R [2] = target: T1, IGF-1R; test: competition with 125I-IGF-1 on mouse fibroblasts transfected with human IGF-1R; relative to human insulin
[3] = published, (Kd of native hormone/Kd of derivative) × 100

IR-A, sequence (P06213 28-1370 isoform P06213-2 limits assumed): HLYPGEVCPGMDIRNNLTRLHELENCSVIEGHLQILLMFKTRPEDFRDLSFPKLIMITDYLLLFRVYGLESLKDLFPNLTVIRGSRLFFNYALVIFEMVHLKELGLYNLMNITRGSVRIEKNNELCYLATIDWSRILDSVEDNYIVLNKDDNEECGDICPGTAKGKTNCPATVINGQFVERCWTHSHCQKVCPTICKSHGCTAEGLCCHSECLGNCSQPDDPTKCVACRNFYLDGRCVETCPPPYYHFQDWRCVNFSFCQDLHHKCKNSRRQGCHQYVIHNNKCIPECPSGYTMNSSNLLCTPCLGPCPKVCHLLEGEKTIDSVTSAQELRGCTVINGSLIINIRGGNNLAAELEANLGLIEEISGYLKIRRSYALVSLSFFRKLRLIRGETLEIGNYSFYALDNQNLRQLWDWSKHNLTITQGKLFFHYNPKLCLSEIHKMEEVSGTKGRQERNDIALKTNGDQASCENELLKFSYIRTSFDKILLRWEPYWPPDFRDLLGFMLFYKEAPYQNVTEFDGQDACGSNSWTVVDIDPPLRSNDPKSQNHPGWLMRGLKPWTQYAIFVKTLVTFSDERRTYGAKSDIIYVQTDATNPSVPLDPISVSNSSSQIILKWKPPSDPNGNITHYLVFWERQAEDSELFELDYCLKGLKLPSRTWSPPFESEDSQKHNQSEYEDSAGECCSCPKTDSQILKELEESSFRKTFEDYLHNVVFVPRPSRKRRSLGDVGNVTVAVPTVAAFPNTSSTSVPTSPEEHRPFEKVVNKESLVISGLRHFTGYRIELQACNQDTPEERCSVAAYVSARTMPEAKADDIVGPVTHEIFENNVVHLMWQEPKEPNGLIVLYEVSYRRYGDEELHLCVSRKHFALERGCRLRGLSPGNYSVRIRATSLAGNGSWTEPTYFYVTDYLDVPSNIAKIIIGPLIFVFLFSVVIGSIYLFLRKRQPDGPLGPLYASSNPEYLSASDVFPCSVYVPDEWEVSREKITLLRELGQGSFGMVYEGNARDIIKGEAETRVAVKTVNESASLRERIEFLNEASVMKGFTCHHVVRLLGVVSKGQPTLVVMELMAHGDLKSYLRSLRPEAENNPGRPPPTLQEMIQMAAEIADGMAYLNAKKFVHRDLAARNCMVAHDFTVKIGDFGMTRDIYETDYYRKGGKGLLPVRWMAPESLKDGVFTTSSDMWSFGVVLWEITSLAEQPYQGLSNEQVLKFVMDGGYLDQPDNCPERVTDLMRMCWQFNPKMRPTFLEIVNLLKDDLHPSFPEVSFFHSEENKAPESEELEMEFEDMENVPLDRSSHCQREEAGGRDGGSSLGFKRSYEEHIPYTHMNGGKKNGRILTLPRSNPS
IR-A, sequence (P06213 763-1382 limits assumed): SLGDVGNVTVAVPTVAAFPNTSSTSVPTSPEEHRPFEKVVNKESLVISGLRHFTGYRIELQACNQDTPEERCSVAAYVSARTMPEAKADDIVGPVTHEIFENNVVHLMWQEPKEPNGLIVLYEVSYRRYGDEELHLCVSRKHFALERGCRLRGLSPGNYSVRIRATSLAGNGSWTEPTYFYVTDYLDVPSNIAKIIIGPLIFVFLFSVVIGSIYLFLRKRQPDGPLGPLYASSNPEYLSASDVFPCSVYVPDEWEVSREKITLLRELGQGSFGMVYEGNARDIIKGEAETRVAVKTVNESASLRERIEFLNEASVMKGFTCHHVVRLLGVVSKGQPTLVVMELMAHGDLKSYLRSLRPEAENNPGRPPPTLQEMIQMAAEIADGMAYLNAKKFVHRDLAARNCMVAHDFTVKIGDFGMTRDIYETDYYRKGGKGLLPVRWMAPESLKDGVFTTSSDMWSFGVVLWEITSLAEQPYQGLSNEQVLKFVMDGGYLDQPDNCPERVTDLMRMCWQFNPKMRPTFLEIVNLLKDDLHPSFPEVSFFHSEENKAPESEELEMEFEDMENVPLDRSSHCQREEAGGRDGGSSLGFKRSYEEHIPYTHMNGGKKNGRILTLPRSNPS
IR-B, sequence (P06213 28-758 limits assumed): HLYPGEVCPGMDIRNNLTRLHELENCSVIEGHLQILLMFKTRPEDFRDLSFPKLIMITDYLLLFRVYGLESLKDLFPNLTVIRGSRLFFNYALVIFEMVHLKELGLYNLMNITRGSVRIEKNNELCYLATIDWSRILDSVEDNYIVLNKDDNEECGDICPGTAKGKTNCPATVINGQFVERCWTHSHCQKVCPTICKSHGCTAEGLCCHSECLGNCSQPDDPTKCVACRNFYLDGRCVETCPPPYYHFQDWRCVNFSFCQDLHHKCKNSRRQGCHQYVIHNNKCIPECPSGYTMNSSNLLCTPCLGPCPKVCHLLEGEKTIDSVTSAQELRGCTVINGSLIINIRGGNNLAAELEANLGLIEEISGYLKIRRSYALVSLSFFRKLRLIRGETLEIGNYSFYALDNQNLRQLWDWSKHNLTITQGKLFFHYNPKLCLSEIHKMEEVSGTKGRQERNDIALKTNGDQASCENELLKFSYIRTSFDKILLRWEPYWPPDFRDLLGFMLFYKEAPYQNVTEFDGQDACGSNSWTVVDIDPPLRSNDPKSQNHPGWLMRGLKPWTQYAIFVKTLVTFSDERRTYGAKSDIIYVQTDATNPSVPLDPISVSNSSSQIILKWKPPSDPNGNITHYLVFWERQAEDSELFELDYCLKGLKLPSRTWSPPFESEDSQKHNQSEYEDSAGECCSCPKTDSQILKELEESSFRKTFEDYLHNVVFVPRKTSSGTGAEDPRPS
IR-B, sequence (P06213 763-1382 limits assumed): as the sequence (P06213 763-1382 limits assumed) above
IN-ML-15 (GluB10, D-HisB24, GlyB31, TyrB32-insulin) (ligand), sequence (chain): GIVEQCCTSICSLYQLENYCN
IN-ML-15 (GluB10, D-HisB24, GlyB31, TyrB32-insulin) (ligand), sequence (chain): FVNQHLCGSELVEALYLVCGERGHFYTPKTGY

Row | Molecule | Relative binding affinity for IR-A (%) (IR-A) | Relative binding affinity for IR-B (%) (IR-B) | Relative binding affinity for IGF-1R (%) (IGF-1R [1]; [3]) | further results
1 | CC(=O)C=O [Methylglyoxal, methylglyoxal] |  |  |  | amount of cells grown in the wells compared with the control (SH-SY5Y cells): 50-60%
2 | AspB10-insulin | 206 |  |  | Relative binding affinity for IGF-1R (%) (IGF-1R [1]; Converted from Schaffer data): 0.2* %
3 | D-HisB24, GlyB31, TyrB32-insulin | 251 | 338 | 12% and 12.4% | 
4 | D-AlaB24-insulin | 150 |  |  | 
5 | D-PheB24-insulin | 180 |  |  | 
6 | IN-ML-15 (GluB10, D-HisB24, GlyB31, TyrB32-insulin) (ligand) |  |  |  | times more potent than insulin (IGF-1R [2]): 790 times
7 | GluB10-insulin | 407 |  |  | 
8 | D-HisB24-insulin | 280 | 250 | 1.0% | 
9 | D-ProB24-insulin | 1.3 |  |  | 
10 | GlyB31, TyrB32-insulin | 162 | 310 | 0.27% | 
